Results reported in EP4778531A1, “MUSCLE RELAXANT ANTAGONIST FOR REVERSAL FOR BENZYLISOQUINOLINE MUSCLE RELAXANT” (priority 2023, dated 2025).

Legend:
[1] = such as mivacurium, atracurium, and cisatracurium; background; cited from earlier work
[2] = test system: neuromuscular blockade induced by atracurium; details: H. D. de Boer et al., British Journal of Anaesthesia 2006; cited from earlier work
[3] = test system: Inflammation-Related Factors; type: in vivo, ICR mice; details: Adamgammadex sodium 1 g/kg, Sugammadex sodium 1 mg/kg, Neostigmine 0.3 mg/kg
Experimental: An antibody array is a type of protein chip characterized by miniaturization, integration, and high throughput. It can be used to detect the expression abundance of proteins related to a specific physiological or pathological process. The principle involves arranging capture antibodies on a membrane or glass slide, incubating with the sample, adding biotin-labeled antibodies against the target proteins, and finally using HRP-streptavidin or fluorescein-streptavidin to detect the chip signal. Signals are detected using chemiluminescence or HiLyte™ Fluor 555-streptavidin.
In this experiment, ICR mice were randomly divided into a blank group, Adamgammadex sodium (1 g/kg) group, Sugammadex sodium (1 mg/kg) group, and Neostigmine (0.3 mg/kg) group, with 2 mice per group. Mice in each group given the corresponding dosage of compound via the tail vein once daily for 5 consecutive days. On the last day after administration, plasma from the 2 animals per group was mixed and detected using the Ary028 immune chip kit. Specific detection steps were as follows: • (1) Sample volume determination: 200 µL serum sample per Array unit. (2) Blocking protein chip: Each membrane was blocked with 2 mL of corresponding Array Buffer, incubated on a shaker for 1 hour. (3) Sample processing: Samples were diluted with corresponding Array Buffer to a volume of 1.5 mL per membrane, the corresponding Array unit was added, and incubated overnight with the Array protein membrane at 4°C. (4) Membranes were washed three times with corresponding Wash buffer, then diluted detection antibody was added and incubated at room temperature for 1 h. (5) Membranes were washed three times with corresponding Wash buffer, streptavidin-HRP was added and incubated for 30min at room temperature with shaking. (6) Membranes were washed three times with corresponding Wash buffer, 1 mL of chemiluminescent reagent was added to each well, and developed on a chemiluminescence imager. (7) Fluorescence intensity was used to represent the relative concentration of the corresponding protein.

[4] = ICR mice, tail vein once daily for 5 days, pooled plasma of 2 mice, N.D. = below minimum detection limit

SMILES: O=C([O-])CCSC[C@H]1O[C@@H]2O[C@H]3[C@H](O)[C@@H](O)[C@@H](O[C@H]4[C@H](O)[C@@H](O)[C@@H](O[C@H]5[C@H](O)[C@@H](O)[C@@H](O[C@H]6[C@H](O)[C@@H](O)[C@@H](O[C@H]7[C@H](O)[C@@H](O)[C@@H](O[C@H]8[C@H](O)[C@@H](O)[C@@H](O[C@H]9[C@H](O)C(O)[C@@H](O[C@H]1[C@H](O)[C@H]2O)O[C@@H]9CSCCC(=O)[O-])O[C@@H]8CSCCC(=O)[O-])O[C@@H]7CSCCC(=O)[O-])O[C@@H]6CSCCC(=O)[O-])O[C@@H]5CSCCC(=O)[O-])O[C@@H]4CSCCC(=O)[O-])O[C@@H]3CSCCC(=O)[O-].[Na+].[Na+].[Na+].[Na+].[Na+].[Na+].[Na+].[Na+] (stereo partly drawn) [Compound 7, Sugammadex sodium]
- binding to succinylcholine or benzylisoquinoline-type neuromuscular blocking agents (in words) [1]: does not bind
- reversing the neuromuscular blockade induced by atracurium (in words) [2]: ineffective
- Fluorescence Intensity BAFF/BlyS/ TNFSF13B (B cell activation factor) [3, 4]: 13375.34
- Fluorescence Intensity C-Reactive Protein/CRP (C-reactive protein) [3, 4]: 8550.52
- Fluorescence Intensity CCL21/6Ckine (Lymphocyte chemokine CCL21) [3, 4]: 27027.2
- Fluorescence Intensity CCL22/MDC (Macrophage-derived chemokine) [3, 4]: 2578.89
- Fluorescence Intensity CD160 (Leukocyte differentiation antigen160) [3, 4]: 187.67
- Fluorescence Intensity CXCL9/MIG (IFN-γ-induced monocyte factor) [3, 4]: 3617.92
- Fluorescence Intensity Chemerin (Chemotactic factor) [3, 4]: 4629.24
- Fluorescence Intensity IL-7 (Interleukin-7) [3, 4]: 1922.84
- Fluorescence Intensity IL-11 (Interleukin-11) [3, 4]: 216.49
- Fluorescence Intensity IL-12p40 (Interleukin IL-12p40) [3, 4]: 1049.34
- Fluorescence Intensity IL-28 (Interleukin-28) [3, 4]: 2440.68
- Fluorescence Intensity IL-33 (Interleukin-33) [3, 4]: 592.77
- Fluorescence Intensity M-CSF (Macrophage colony-stimulating factor) [3, 4]: 5871.05
- Fluorescence Intensity Myeloperoxidase (Mastoperoxidase) [3, 4]: 4645.21
- Fluorescence Intensity Pentraxin 3 (Pertussis toxin 3) [3, 4]: 4555.53
- Fluorescence Intensity TIM-1/KIM-1/ HAVCR (Hepatitis A virus receptor-1 (inflammation/ immunity)) [3, 4]: 1023.1
- impact on inducing immune inflammation in mice (in words) ([3]; conclusion from Tables 3 and 4): second-lowest impact
- Fluorescence Intensity M-CSF (Macrophage lysis-stimulating factor) ([3]; second M-CSF line of Table 4, ICR mice, tail vein once daily for 5 days, pooled plasma of 2 mice, N.D. = below minimum detection limit): 5871.05
- Fluorescence Intensity Pentraxin 3/TSG-14 (Pertussis toxin 3) ([3]; second Pentraxin 3 line of Table 4, ICR mice, tail vein once daily for 5 days, pooled plasma of 2 mice, N.D. = below minimum detection limit): 4555.53
